Laboratory results published in patent publication US20230398130A1, “METHODS AND COMPOSITIONS FOR DIFFERENTIATING STEM CELLS” (Massachusetts Institute of Technology, priority 2020, published 2023).
Structures can show the parent of a compound that is named as a salt.

What was measured:
ISC-enriched organoids [1] = assay: Primary screen, 384-well 2.5-D organoid differentiation (ENR+CD, 6 days): basal lysozyme secretion (LYZ.NS); assay type: cell-based, murine; details: for Dose.FC.LYZ.NS (log 2 fold change) / Dose.FC.LYZ.NS (log 2 fold change, basal lysozyme secretion): vs plate median; for SSMD.LYZ.NS: strictly standardized mean difference
From the text: (§1) High-throughput screening.

ISC-enriched organoids [2] = assay: Primary screen, 384-well 2.5-D organoid differentiation (ENR+CD, 6 days): carbachol-induced lysozyme secretion (LYZ.S); assay type: cell-based, murine; details: for Dose.FC.LYZ.S (log 2 fold change) / Z.LYZ.S / SSMD.LYZ.S: primary screen; for Dose.FC.LYZ.S (log 2 fold change) / Dose.FC.LYZ.S (log 2 fold change, carbachol-induced lysozyme secretion): vs plate median; for Z.LYZ.S: standard z score; for SSMD.LYZ.S: strictly standardized mean difference
From the text: as §1

ISC-enriched organoids [3] = assay: Primary screen, 384-well 2.5-D organoid differentiation (ENR+CD, 6 days, Target Selective Inhibitor Library, vs whole-plate median): ATP (CellTiter-Glo 3D, CTG); details: for Dose.FC.CTG (log 2 fold change) / Dose.FC.CTG (log 2 fold change, ATP): vs plate median; for Z.CTG: standard z score; for SSMD.CTG: strictly standardized mean difference
[4] = primary screen, 1st of the 4 dose lines of the treatment (dose not given)
[5] = primary screen, 2nd of the 4 dose lines of the treatment (dose not given)
[6] = primary screen, 3rd of the 4 dose lines of the treatment (dose not given)
[7] = primary screen, 4th of the 4 dose lines of the treatment (dose not given)
[8] = 1st of the 4 dose lines of the treatment (dose not given)
[9] = 2nd of the 4 dose lines of the treatment (dose not given)
[10] = 3rd of the 4 dose lines of the treatment (dose not given)
[11] = 4th of the 4 dose lines of the treatment (dose not given)

CC(C)[C@H](O)C(=O)N[C@@H](C)C(=O)N[C@@H]1C(=O)N(C)CCc2ccccc21 [Semagacestat (LY450139)]
Z.LYZ.NS (standard z score) (ISC-enriched organoids [1]; Dose 0.08 uM, primary screen): 0.151 | Dose.FC.LYZ.NS (log 2 fold change) (ISC-enriched organoids [1]; Dose 0.08 uM, primary screen): 0.017 | Z.LYZ.NS (standard z score) (ISC-enriched organoids [1]; Dose 0.40 uM, primary screen): −0.181 | Dose.FC.LYZ.NS (log 2 fold change) (ISC-enriched organoids [1]; Dose 0.40 uM, primary screen): −0.021 | Z.LYZ.NS (standard z score) (ISC-enriched organoids [1]; Dose 2.00 uM, primary screen): −0.704 | Dose.FC.LYZ.NS (log 2 fold change) (ISC-enriched organoids [1]; Dose 2.00 uM, primary screen): −0.081 | Z.LYZ.NS (standard z score) (ISC-enriched organoids [1]; Dose 10.00 uM, primary screen): −0.942 | Dose.FC.LYZ.NS (log 2 fold change) (ISC-enriched organoids [1]; Dose 10.00 uM, primary screen): −0.108 | Dose.FC.LYZ.S (log 2 fold change) (ISC-enriched organoids [2]; Dose 0.08 uM): −0.014 | Dose.FC.LYZ.S (log 2 fold change) (ISC-enriched organoids [2]; Dose 0.40 uM): −0.006 | Dose.FC.LYZ.S (log 2 fold change) (ISC-enriched organoids [2]; Dose 2.00 uM): −0.081 | Dose.FC.LYZ.S (log 2 fold change) (ISC-enriched organoids [2]; Dose 10.00 uM): −0.162 | Z.CTG (standard z score) (ISC-enriched organoids [3]; Dose 0.08 uM, primary screen): 0.338 | Dose.FC.CTG (log 2 fold change) (ISC-enriched organoids [3]; Dose 0.08 uM, primary screen): 0.141 | Z.CTG (standard z score) (ISC-enriched organoids [3]; Dose 0.40 uM, primary screen): −0.494 | Dose.FC.CTG (log 2 fold change) (ISC-enriched organoids [3]; Dose 0.40 uM, primary screen): −0.207 | Z.CTG (standard z score) (ISC-enriched organoids [3]; Dose 2.00 uM, primary screen): −0.306 | Dose.FC.CTG (log 2 fold change) (ISC-enriched organoids [3]; Dose 2.00 uM, primary screen): −0.128 | Z.CTG (standard z score) (ISC-enriched organoids [3]; Dose 10.00 uM, primary screen): −2.045 | Dose.FC.CTG (log 2 fold change) (ISC-enriched organoids [3]; Dose 10.00 uM, primary screen): −0.856

CCc1c2c(nc3ccc(OC(=O)N4CCC(N5CCCCC5)CC4)cc13)-c1cc3c(c(=O)n1C2)COC(=O)[C@]3(O)CC [Irinotecan]
SSMD.LYZ.NS (ISC-enriched organoids [1]; [4]): −0.217 | SSMD.LYZ.NS (ISC-enriched organoids [1]; [5]): −0.556 | SSMD.LYZ.NS (ISC-enriched organoids [1]; [6]): −1.415 | SSMD.LYZ.NS (ISC-enriched organoids [1]; [7]): −1.102 | Z.LYZ.S (ISC-enriched organoids [2]; [8]): −0.023 | Z.LYZ.S (ISC-enriched organoids [2]; [9]): −0.939 | Z.LYZ.S (ISC-enriched organoids [2]; [10]): −1.596 | Z.LYZ.S (ISC-enriched organoids [2]; [11]): −1.624 | SSMD.LYZ.S (ISC-enriched organoids [2]; [8]): −0.018 | SSMD.LYZ.S (ISC-enriched organoids [2]; [9]): −0.721 | SSMD.LYZ.S (ISC-enriched organoids [2]; [10]): −1.400 | SSMD.LYZ.S (ISC-enriched organoids [2]; [11]): −1.217 | Z.CTG (ISC-enriched organoids [3]; Dose 0.08 uM, primary screen): −0.265 | Z.CTG (ISC-enriched organoids [3]; Dose 0.40 uM, primary screen): −1.872 | Z.CTG (ISC-enriched organoids [3]; Dose 2.00 uM, primary screen): −1.875 | Z.CTG (ISC-enriched organoids [3]; Dose 10.00 uM, primary screen): −2.951 | SSMD.CTG (ISC-enriched organoids [3]; [4]): −0.378 | SSMD.CTG (ISC-enriched organoids [3]; [5]): −1.558 | SSMD.CTG (ISC-enriched organoids [3]; [6]): −1.491 | SSMD.CTG (ISC-enriched organoids [3]; [7]): −2.716

CCOC(=O)[C@H](CCc1ccccc1)N[C@@H](C)C(=O)N1C(=O)N(C)C[C@H]1C(=O)O [Imidapril HCl]
SSMD.LYZ.NS (ISC-enriched organoids [1]; [4]): −0.047 | SSMD.LYZ.NS (ISC-enriched organoids [1]; [5]): 0.004 | SSMD.LYZ.NS (ISC-enriched organoids [1]; [6]): 0.101 | SSMD.LYZ.NS (ISC-enriched organoids [1]; [7]): −0.541 | Z.LYZ.S (ISC-enriched organoids [2]; [8]): −0.274 | Z.LYZ.S (ISC-enriched organoids [2]; [9]): 0.702 | Z.LYZ.S (ISC-enriched organoids [2]; [10]): −0.226 | Z.LYZ.S (ISC-enriched organoids [2]; [11]): −0.487 | SSMD.LYZ.S (ISC-enriched organoids [2]; [8]): −0.269 | SSMD.LYZ.S (ISC-enriched organoids [2]; [9]): 0.315 | SSMD.LYZ.S (ISC-enriched organoids [2]; [10]): −0.262 | SSMD.LYZ.S (ISC-enriched organoids [2]; [11]): −0.404 | Z.CTG (ISC-enriched organoids [3]; Dose 0.08 uM, primary screen): −0.796 | Z.CTG (ISC-enriched organoids [3]; Dose 0.40 uM, primary screen): −0.354 | Z.CTG (ISC-enriched organoids [3]; Dose 2.00 uM, primary screen): −0.564 | Z.CTG (ISC-enriched organoids [3]; Dose 10.00 uM, primary screen): −0.543 | SSMD.CTG (ISC-enriched organoids [3]; [4]): −1.054 | SSMD.CTG (ISC-enriched organoids [3]; [5]): −0.525 | SSMD.CTG (ISC-enriched organoids [3]; [6]): −0.548 | SSMD.CTG (ISC-enriched organoids [3]; [7]): −0.699

Cl.N[C@@H]1C[C@H]1c1ccccc1 (racemic) [Tranylcypromine (2-PCPA) HCl]
Z.LYZ.NS (standard z score) (ISC-enriched organoids [1]; dose 0.08 uM): 0.285 | Dose.FC.LYZ.NS (log 2 fold change, basal lysozyme secretion) (ISC-enriched organoids [1]; dose 0.08 uM): 0.033 | Z.LYZ.NS (standard z score) (ISC-enriched organoids [1]; dose 0.40 uM): −0.426 | Dose.FC.LYZ.NS (log 2 fold change, basal lysozyme secretion) (ISC-enriched organoids [1]; dose 0.40 uM): −0.049 | Z.LYZ.NS (standard z score) (ISC-enriched organoids [1]; dose 2.00 uM): 0.423 | Dose.FC.LYZ.NS (log 2 fold change, basal lysozyme secretion) (ISC-enriched organoids [1]; dose 2.00 uM): 0.049 | Z.LYZ.NS (standard z score) (ISC-enriched organoids [1]; dose 10.00 uM): −0.389 | Dose.FC.LYZ.NS (log 2 fold change, basal lysozyme secretion) (ISC-enriched organoids [1]; dose 10.00 uM): −0.045 | Dose.FC.LYZ.S (log 2 fold change, carbachol-induced lysozyme secretion) (ISC-enriched organoids [2]; dose 0.08 uM): 0.050 | Dose.FC.LYZ.S (log 2 fold change, carbachol-induced lysozyme secretion) (ISC-enriched organoids [2]; dose 0.40 uM): −0.037 | Dose.FC.LYZ.S (log 2 fold change, carbachol-induced lysozyme secretion) (ISC-enriched organoids [2]; dose 2.00 uM): 0.036 | Dose.FC.LYZ.S (log 2 fold change, carbachol-induced lysozyme secretion) (ISC-enriched organoids [2]; dose 10.00 uM): −0.096 | Z.CTG (standard z score) (ISC-enriched organoids [3]; dose 0.08 uM): −0.153 | Dose.FC.CTG (log 2 fold change, ATP) (ISC-enriched organoids [3]; dose 0.08 uM): −0.064 | Z.CTG (standard z score) (ISC-enriched organoids [3]; dose 0.40 uM): 0.148 | Dose.FC.CTG (log 2 fold change, ATP) (ISC-enriched organoids [3]; dose 0.40 uM): 0.062 | Z.CTG (standard z score) (ISC-enriched organoids [3]; dose 2.00 uM): 0.128 | Dose.FC.CTG (log 2 fold change, ATP) (ISC-enriched organoids [3]; dose 2.00 uM): 0.053 | Z.CTG (standard z score) (ISC-enriched organoids [3]; dose 10.00 uM): −1.274 | Dose.FC.CTG (log 2 fold change, ATP) (ISC-enriched organoids [3]; dose 10.00 uM): −0.533
